Assay [1] has as its system TNF-α. Nature of the assay: In vivo rodent assay for inhibition of LPS-induced TNF-α production. Also noted: species or system Mice (BALB/cJ females). The settings on record: 10 mg/kg oral; for inhibition in vivo at 10 mg/kg: Mus musculus, po. The method, then:
Mice (BALB/cJ females, Jackson Laboratories) or rats (Lewis males, Charles River) were fasted for 30 min. The animals were dosed orally on a mg/kg basis at a range of times prior to being injected intraperitoneally with LPS at 1 mg/kg and returned to their cages for 1 h. Animals were anesthetized by CO2, exsanguinated by cardiac puncture and whole blood collected (0.1-0.7 mL). The blood was allowed to clot and serum was transferred to a centrifuge tube. This sample was centrifuged, and serum was collected, aliquoted and frozen at −80° C. Samples were tested by commercial ELISA's for TNF-α (Endogen for mouse TNF-α and Biosource for rat TNF-α).

The test system of assay [2] is TNF-α. Nature of the assay: In-vitro whole cell assay for TNF-α inhibition (LPS-stimulated PBMC, ELISA). The format is cell-based. The settings on record: TNF-α by ELISA. On the procedure: Freshly obtained venous blood was anticoagulated with heparin, diluted with an equal volume of phosphate buffered saline (“PBS”) and placed in a sterile tube or other container. Aliquots (30 mL) of this mixture were transferred to centrifuge tubes, which were underlaid with Ficoll-Hypaque (15 mL). The prepared tubes were centrifuged at 400×g, without braking, for 30 min at room temperature. Approximately ½ to ⅔ of the platelet layer above the mononuclear cell band was removed with a pipette. The majority of the mononuclear cell layer was carefully removed using a pipette and these PBMC's were diluted with PBS and spun at 600×g for 15 min. The resulting PBMC's were washed with another portion of PBS and spun at 400×g for 10 min at room temperature. The recovered pellets were diluted in low endotoxin RPMI/1% FCS culture medium, and gave a cell concentration of 0.5-2.0×10^6 PMBC/ mL. A small volume of the suspension was removed for counting on a hemocytometer and the remaining preparation was centrifuged at 200×g for 15 min at room temperature. The recovered pelleted PMBC's were resuspended in RPMI/1% FCS to a concentration of 1.67×10^6/mL.
To run the assay, the PBMC suspension (180 μL) was transferred to duplicate wells of a 96-well flat-bottom microtiter plate and incubated for 1 h at 37° C. A solution of test compound (10 μL: prepared at 20× the desired final concentration) was added to each well and the plate was incubated for 1 h at 37° C. A solution (10 μL) of LPS in RPMI/1% FCS (200 ng/mL) was added and the wells were incubated overnight at 37° C. The supernate (100 μL) was removed from each well and diluted with RPMI/1% FCS (400 μL). The samples were analyzed for TNF-α using a commercial ELISA kit (Genzyme).

[3] abbreviates: 0.5 h, 0.5 h, read-out: Mouse 10 mg/kg % inhib 0.5 h.
Where [4] appears, read: 2 h, 2 h, read-out: Mouse 10 mg/kg % inhib 2 h.

Like-named read-outs stand apart in the source and are kept apart here.

Consider `COC(=O)c1c(-c2ccc(F)cc2)c(-c2ccncc2)c2n1CCC2C` (stereo not shown) [Cpd 47, 6-(4-Fluorophenyl)-2,3-dihydro-1-methyl-7-(4-pyridinyl)-1H-pyrrolizine-5-carboxylic acid methyl ester], for which the values for the inhibition in vivo at 10 mg/kg in assay [1] (setting [3]) and in assay [1] (setting [4]) were 67% and 52%, respectively. Besides, in assay [2], the IC50 (commonly the midpoint of a concentration-inhibition curve) turned out to be 208 nM.

`COC(=O)c1c(-c2ccc(F)cc2)c(-c2ccncc2)c(N(C)CCN2CCSCC2)n1C` [Cpd 162]: the IC50 in assay [2] is 183 nM.

`COC(=O)c1c(-c2ccncc2)c(-c2ccc(F)cc2)c(NCCN2CCOCC2)n1C` [Cpd 148]: the inhibition in vivo at 10 mg/kg in assay [1] (setting [3]) was 91%. The compound also registered an IC50 in assay [2] of 10000 nM.

For `COC(=O)c1c(-c2ccncc2)c(-c2ccc(F)cc2)c(C#CCCO)n1C` [Cpd 167], the inhibition in vivo at 10 mg/kg in assay [1] (setting [3]) was determined as 30%. Further, the IC50 in assay [2] was 894 nM.

On to `CCn1cc(-c2ccncc2)c(-c2ccc(F)cc2)c1CO` [Cpd 143], for which the inhibition in vivo at 10 mg/kg in assay [1] (setting [3]) was determined as 48%. The IC50 in assay [2] worked out at 70 nM.

For `Cn1c(C#N)c(-c2ccc(F)cc2)c(-c2ccncc2)c1N1CCNCC1` [Cpd 186], the inhibition in vivo at 10 mg/kg in assay [1] (setting [4]) amounted to 67%. In assay [2], this compound had an IC50 of 18 nM.

As for `CC(=O)N1CCN(c2c(-c3ccncc3)c(-c3ccc(F)cc3)c(-c3nnco3)n2C)CC1` [Cpd 157], the inhibition in vivo at 10 mg/kg in assay [1] (setting [3]) is 19%.

With `COC(=O)c1c(-c2ccncc2)c(-c2ccc(F)cc2)cn1C` [Cpd 141], the inhibition in vivo at 10 mg/kg in assay [1] (setting [3]) was -56%. For the same compound, half-maximal inhibition in assay [2] (IC50) required 55 nM.

For the compound `CON(C)C(=O)c1c(-c2ccc(F)cc2)c(-c2ccncc2)cn1C` [Cpd 37, 3-(4-Fluorophenyl)-N-methoxy-N,1-dimethyl-4-(4-pyridinyl)-1H-pyrrole-2-carboxamide], the IC50 in assay [2] came to 5840 nM.

As for `C=CC#Cc1c(-c2ccc(F)cc2)c(-c2ccncc2)c(C(=O)OC)n1C` [Cpd 176], the inhibition in vivo at 10 mg/kg in assay [1] (setting [4]) was -20%. This compound came in with an IC50 in assay [2] of 34 nM.

Turning to `COC(=O)c1c(-c2ccc(F)cc2)c(-c2ccncc2)c(C2=CCNCC2)n1C` [Cpd 7, 3-(4-Fluorophenyl)-1-methyl-4-(4-pyridinyl)-5-(1,2,3,6-tetrahydro-4-pyridinyl)-1H-pyrrole-2-carboxylic acid methyl ester], the inhibition in vivo at 10 mg/kg in assay [1] (setting [3]) amounted to 96%. In assay [2], this compound yielded an IC50 of 72 nM.

The compound `COC(=O)c1c(-c2ccc(F)cc2)c(-c2ccncc2)c(NCCN2CCCC2)n1C` [Cpd 118] came in with an IC50 in assay [2] of 1390 nM.

`COC(=O)c1c(-c2ccc(F)cc2)c(-c2ccncc2)c(NCCN(C)C)n1C` [Cpd 114]: in assay [1] (setting [3]), the inhibition in vivo at 10 mg/kg was -43%. The compound further yielded an IC50 in assay [2] of 98 nM.

Consider `COC(=O)c1c(-c2ccncc2)c(-c2ccc(F)cc2)c(N(C)CCN2CCOCC2)n1C` [Cpd 164], for which the IC50 in assay [2] came to 3510 nM.

Regarding `COC(=O)c1c(-c2ccc(F)cc2)c(-c2ccncc2)c(-c2ccncc2)n1C` [Cpd 137], the inhibition in vivo at 10 mg/kg in assay [1] (setting [3]) was determined as 51%.

Take `COC(=O)c1c(-c2ccc(F)cc2)c(-c2ccncc2)c(NCCc2ccncc2)n1C` [Cpd 154]: the IC50 in assay [2] was 145 nM. This counts as sub-micromolar.

In the case of `CCCn1c(NCCN2CCOCC2)c(-c2ccncc2)c(-c2ccc(F)cc2)c1C(=O)OC` [Cpd 153], inhibition in assay [2] was half-maximal at 589 nM (IC50).

In the case of `COC(=O)C1CCn2c(I)c(-c3ccncc3)c(-c3ccc(F)cc3)c2C1=O` (stereo not shown) [Cpd 136], the inhibition in vivo at 10 mg/kg in assay [1] (setting [3]) came to 15%.

For the compound `COC(=O)c1c(-c2ccc(F)cc2)c(-c2ccncc2)c(Nc2ccc3c(c2)N(C(C)=O)CC3)n1C` [Cpd 166], in assay [2], the IC50 was 650 nM.

Consider `COC(=O)c1c(-c2ccc(F)cc2)c(-c2ccncc2)c(N2CCC(NC(=O)OC(C)(C)C)C2)n1C` (stereo not shown) [Cpd 110], for which, in assay [2], the IC50 stood at 1660 nM.

`COC(=O)c1c(-c2ccc(F)cc2)c(-c2ccncc2)cn1CCO` [Cpd 165] displayed an IC50 in assay [2] of 692 nM.

`Cn1cc(-c2ccncc2)c(-c2ccc(F)cc2)c1C#N` [Cpd 169]: the “Mouse 10 mg/kg % inhib 2 h” value in assay [1] (2 h, 10 mg/kg) worked out at 49%.

For `COC(=O)c1c(-c2ccc(F)cc2)c(-c2ccncc2)c(Nc2cccc(NC(C)=O)c2)n1C` [Cpd 174], the IC50 in assay [2] is 21 nM.

In the case of `COC(=O)c1c(-c2ccc(F)cc2)c(-c2ccncc2)c(NCCNC(C)=O)n1C` [Cpd 135], the IC50 in assay [2] was found to be 1690 nM. This IC50 is about 80-fold higher than that of the compound before.

Consider `CCOC(=O)c1c(-c2ccc(F)cc2)c(-c2ccncc2)c(CCCO)n1C` [Cpd 17, 3-(4-Fluorophenyl)-5-(3-hydroxypropyl)-1-methyl-4-(4-pyridinyl)-1H-pyrrole-2-carboxylic acid ethyl ester], for which it took 186 nM to reach half-maximal inhibition in assay [2] (IC50).

`CC(O)c1c(-c2ccc(F)cc2)c(-c2ccncc2)cn1C` (stereo not shown) [Cpd 40, 3-(4-Fluorophenyl)-[…], 1-dimethyl-4-(4-pyridinyl)-1H-pyrrole-2-methanol] registered an IC50 in assay [2] of 1450 nM.

Consider `O=C1OCCn2cc(-c3ccncc3)c(-c3ccc(F)cc3)c21` [Cpd 46, 8-(4-Fluorophenyl)-3,4-dihydro-7-(4-pyridinyl)-1H-pyrrolo[2,1-c][1,4]oxazin-1-one], for which, in assay [2], the IC50 worked out at 160 nM. This IC50 is about 9.1-fold lower than that of the compound before.

Turning to `Cn1c(CO)c(-c2ccc(F)cc2)c(-c2ccncc2)c1N1CCN(C(=O)OC(C)(C)C)CC1` [Cpd 151], the inhibition in vivo at 10 mg/kg in assay [1] (setting [3]) was 83%.

`COC(=O)CCn1c(C#CCCO)c(-c2ccncc2)c(-c2ccc(F)cc2)c1C(=O)OC` [Cpd 150] yielded an IC50 in assay [2] of 5280 nM.

Consider `CCCc1c(-c2ccnc(N[C@@H](C)c3ccccc3)n2)c(-c2ccc(F)cc2)cn1C(=O)OC(C)(C)C` [Cpd 49], for which the inhibition in vivo at 10 mg/kg in assay [1] (setting [3]) was -79%.

Turning to `COC(=O)c1c(-c2ccc(F)cc2)c(-c2ccncc2)c(N2CCN(CC3CCCCC3)CC2)n1C` [Cpd 130], the IC50 in assay [2] came to 573 nM. That is a sub-micromolar value.

`CC(=O)c1c(-c2ccc(F)cc2)c(-c2ccncc2)cn1C` [Cpd 39, 1-[3-(4-Fluorophenyl)-1-methyl-4-(4-pyridinyl)-1H-pyrrol-2-yl]ethanone] registered an IC50 in assay [2] of 597 nM.

Turning to `COC(=O)c1c(-c2ccc(F)cc2)c(-c2ccncc2)c(NCCN2CCNCC2)n1C` [Cpd 140], in assay [1] (setting [3]), the inhibition in vivo at 10 mg/kg was determined as 77%.

For `COC(=O)c1c(-c2ccc(F)cc2)c(-c2ccncc2)c(NC2CCN(Cc3ccccc3)CC2)n1C` [Cpd 120], 1310 nM corresponded to half-maximal inhibition in assay [2] (IC50). This lies in the single-digit micromolar range.

`COC(=O)c1c(-c2ccc(F)cc2)c(-c2ccncc2)c(N2CCN(C(C)C)CC2)n1C` [Cpd 126] showed an IC50 in assay [2] of 1980 nM. This IC50 lies about 1.5-fold higher than the previous one.

For `N#Cc1[nH]cc(-c2ccncc2)c1-c1ccc(F)cc1` [Cpd 158], the IC50 in assay [2] is 47 nM.

Regarding `COC(=O)c1c(-c2ccc(F)cc2)c(-c2ccncc2)c(NCCCN2CCOCC2)n1C` [Cpd 149], the inhibition in vivo at 10 mg/kg in assay [1] (setting [3]) is 64%.

For `CCCN1CCN(c2c(-c3ccncc3)c(-c3ccc(F)cc3)c(C(=O)OC)n2C)CC1` [Cpd 127], the IC50 in assay [2] turned out to be 901 nM.

As for `Cn1c(C#N)c(-c2ccc(F)cc2)c(-c2ccncc2)c1NCCN1CCOCC1` [Cpd 171], inhibition in assay [2] was half-maximal at 351 nM (IC50).

The compound `CCCCNCc1c(-c2ccncc2)c(-c2ccc(F)cc2)cn1C` [Cpd 123] registered an IC50 in assay [2] of 1080 nM.

In assay [2], `COC(=O)c1c(-c2ccc(F)cc2)c(-c2ccncc2)c(NC(C)=O)n1C` [Cpd 142] displayed an IC50 of 1490 nM.

Regarding `Cn1c(C(O)c2ccccc2)c(-c2ccc(F)cc2)c(-c2ccncc2)c1N1CCNCC1` (stereo not shown) [Cpd 117], in assay [2], the IC50 came out at 660 nM.

With `COC(=O)c1c(-c2ccc(F)cc2)c(-c2ccncc2)cn1CCN(C)C` [Cpd 146], in assay [1] (setting [3]), the inhibition in vivo at 10 mg/kg was -32%.

In turn, `COC(=O)CCCn1c(NCCN2CCOCC2)c(-c2ccncc2)c(-c2ccc(F)cc2)c1C(=O)OC` [Cpd 23a] registered an IC50 in assay [2] of 29 nM. This lies in the double-digit nanomolar range.

In assay [2], `COC(=O)c1c(-c2ccc(F)cc2)c(-c2ccncc2)c(NCCNC(=O)OC(C)(C)C)n1C` [Cpd 132] came in with an IC50 of 1640 nM.

The values above are taken from US20050043331A1, “Substituted 3-(2,5-disubstituted)pyridyl-4-aryl pyrroles for treating inflammatory diseases” (priority 2002, published 2005).
